Assay results from ChEMBL document CHEMBL3881522, “Interaction inhibitors of TCF-4 with Beta-catenin” (2004).
Activity calls are given as the source filed them. No cut-off for these calls is given here.

The compounds below were run against TCF4/beta-catenin (Homo sapiens) (UniProt P35222+Q9NQB0) (assay: Inhibition of TCF-4 ( 1 to 56 residues) (unknown origin) binding to beta-catenin/armadillo (unknown origin) at 50 uM by ITC assay).
Format: protein-complex assay

SMILES	inhibition
Cc1ccc(/C(=N\NC(=O)c2ccccc2Oc2ccccc2)c2ccccc2)s1	Active
Nc1n[nH]c(CC2CN(c3ccc(N4CCNCC4)c(Cl)c3)C(=O)N2)n1 (centres undefined)	Active
Cc1ccc(Nc2cccc(-c3ccccc3Oc3ccccc3)c2)o1	Active
Cc1ccc(/C(=N\NC(=O)c2ccccc2Nc2ccccc2)c2ccccc2)o1	Active
Nc1n[nH]c(CC2CN(c3ccc(N4CCOCC4)c(F)c3)C(=O)O2)n1 (centres undefined)	Active
Cc1nnc(-c2sc3nc(-c4ccc(Cl)cc4)nn3c2C)o1	Active
Cc1cc(CNC(=O)/C=C2\C(=O)N(c3ccncc3)c3ccccc32)on1	Active
CC(=O)N(CCCC(C)c1ccccc1)c1nc2c(s1)CCc1ccccc1-2 (centres undefined)	Active
O=C(c1ccncc1)N1CCC(=Cc2ccccc2OCc2ccc(Br)o2)CC1	Active
O=C(Nc1nnc(Br)o1)c1c(O)cc(-c2ccccc2)oc1=O	Active
O=S(=O)(c1ccc(OCc2cnc(Cl)s2)cc1)N1CCOCC1	Active
Cc1ccc(/C=N/n2c(=O)n(-c3ccncc3)c(=O)c3ccccc32)o1	Active
CS(=O)(=O)N(CCCCOc1ccccc1)c1nc2c(s1)CCc1ccccc1-2	Active
O=C(c1ccc(Br)o1)N1CCN(C(c2ccccc2)c2ccccc2)CC1	Active
Cc1cc(/C(=C\c2ccccc2)c2ccc(OCCN3CCCC3)cc2)on1	Active
Cc1ccc(COc2ccccc2C=C2CCN(S(=O)(=O)c3ccncc3)CC2)o1	Active
Cc1ccc(CNC(=O)/C=C2\C(=O)N(c3ccncc3)c3ccccc32)o1	Active
C/C(=N\NC(=O)OCc1ccccc1)c1cc(C)cs1	Active
CS(=O)(=O)N(CCOCCc1ccccc1)c1nc2c([nH]1)CCc1ccccc1-2	Active
C/C(=N\NC(=O)COc1ccccc1)c1ccc(C)s1	Active

SMILES	inhibition
Cc1cc(NC(=O)c2ccc(Oc3ccccc3)cc2)on1	Active
Cc1ccc(CCc2ccc3[nH]c(-c4ccco4)cc3c2)o1	Active
Cc1ccc(/C=N/NC(=O)c2ccccc2Oc2ccccc2)o1	Active
Cc1cc(NC(=O)c2c(O)cc(Oc3ccccc3)oc2=O)on1	Active
Cc1ccc(/C=N/N=C2\C(=O)N(c3ccncc3)c3ccccc32)o1	Active
COc1cccc2c1CCc1sc(N(CCOC(C)CCc3ccccc3)C(C)=O)nc1-2 (centres undefined)	Active
Cc1cc(-c2onc(C)c2COC(=O)Nc2ccccc2)no1	Active
Cc1ccc(/C=N/c2cccc3c(-c4ccncc4)ccnc23)o1	Active
Cc1ccc(/C=C/c2ccc3[nH]c(-c4ccco4)cc3c2)o1	Active
Cc1cc(NC(=O)NC(=O)c2nnc(-c3ccccc3)o2)no1	Active
O=C(CCNS(=O)(=O)c1ccccc1)NNS(=O)(=O)Cc1ccc(Cl)s1	Active
Cc1ccc(NC(=O)c2c(O)cc(-c3ccccc3)oc2=O)o1	Active
Cc1ccc(-c2ccc3ccc(Oc4ccncc4)cc3c2)o1	Active
Cc1ccc(/C=N/Nc2cc(C(=O)NCCc3ccccc3)cc3c2CCc2ccncc2-3)o1	Active
Cc1ccc(/C(=N\NC(=O)c2ccccc2Oc2ccccc2)c2ccccn2)o1	Active
Cc1ccc(C(=O)N2CCN(C(c3ccccc3)c3ccccc3)CC2)s1	Active
O=c1oc(-c2ccccc2)cc(O)c1/C=C/c1nnc(Br)o1	Active
Cc1ccc(CCc2ccc3[nH]c(-c4cccs4)cc3c2)o1	Active
Oc1nnc(CCCc2ccc(Oc3ccccc3)cc2)o1	Active
